Laboratory results reported in patent publication US12661355B2, “Compounds and methods for inducing UCP1 expression” (The Regents of the University of California, priority 2020, dated 2026).

Assays:
Ucp1 = assay: Gene expression by qPCR in immortalized brown adipocytes; assay type: cell-based, mouse
Protocol: Primary brown adipocytes were isolated according to known methods. An established mouse brown adipocyte cell line was obtained from Dr. Bruce Spiegelman (Dana-Farber Cancer Institute, Boston, USA). To differentiate primary and immortalized brown adipocytes, cells were grown until confluency in DMEM containing 10% FBS, 25 mM glucose 1 mM pyruvate, 2 mM glutamine, 20 nM insulin, 1 nM T3, and antibiotics. Once confluent (day 0), differentiation was induced by supplementing the medium with 0.5 mM IBMX, 0.5 μM dexamethasone, and 0.125 mM indomethacin, for 2 days. Differentiation was continued in the original medium (without IBMX, dexamethasone and indomethacin) for 7-10 days.
TScreening was conducted at the UCLA Molecular Screening Shared Resource using automated instruments Immortalized brown adipocytes were differentiated in T225 flasks and plated in Matrix 384-well plates (26,000 cells per well) with white flat bottom (ThermoScientific) using trypsin and collagenase type II (Sigma C6885). The small molecule libraries screened were a BioMol library (204 compounds), an FDA-approved drug library (1120 compounds), a Microsource spectrum collection (2000 compounds), and a druggable compound set (8000 compounds). Molecules were delivered at 10 μM final concentration in DMSO. The screen was performed in duplicate on different days. After 18 h, luciferase activity was measured with Bright-Glo luciferase assay system and an LJL instrument. Data were normalized to the basal response (100% activity) in the presence of DMSO. Following the primary screen, 92 molecules were selected for validation and used to treat brown adipocyte cells plated in a 96-well plate overnight. RNA was extracted with an SV 96 Total RNA Isolation System (Promega). Compounds used for follow-up studies were identified using search tools available from Molport (molport.com), and ordered from the same company.
RNA levels were measured by qPCR according to known methods. Briefly, RNA was extracted with TRIzol (Invitrogen) and reverse transcribed with iScript (Bio-Rad). Real-time PCR analysis was performed with a CFX Connect (Bio-Rad).
Mouse RNA levels were measured by qPCR according to known methods. Data were normalized to B2m and Tbp reference genes. Human RNA was extracted using an RNA Mini Plus kit (Zymo) and gene expression determined by Taqman assay. The 1-step qPCR was run on a QuantStudio 12K Flex Real Time PCR System (ThermoFisher) using the following protocol: 50° C. for 5 minutes, 95° C. for 20 seconds, 40 cycles of 95° C. for 15 seconds and 60° C. for 60 seconds. Data were normalized to PPIA and PSMB2 reference genes. For global gene expression analysis, RNA isolated from brown adipocytes treated with compounds as indicated (four biological replicates) was hybridized to Illumina mouse Ref 8 V2.0 bead chips at the University of California, Los Angeles Neuroscience Genomics Core as previously described. Data were processed with GenomeStudio V2011.1 using the quantile normalization, background subtraction, and a present call of P<0.05.

[1] = target: T1, AKAP1 and the PKA subunits (Mus musculus, UniProt O08715); assay: Co-immunoprecipitation of PKA C-α and PKA RII-β with AKAP1; assay type: cell-based; details: brown adipocytes, 10 μM for 7 h
T1 construct: Immortalized brown adipocyte cells were differentiated for 10 days and treated with 10 μM AST070 or Z160 for 7 h; endogenous in cells; host or cells: immortalized mouse brown adipocytes
Protocol: Immortalized brown adipocyte cells were differentiated for 10 days and treated with 10 μM AST070 or Z160 for 7 h. Cells were lysed in 150 mM NaCl, 50 mM Tris pH 7.5, 1% Nonidet P40, 0.5% Na-deoxycholate containing protease and phosphatase inhibitors. Cell lysates were incubated overnight at 4° C. with 2 μl of anti-AKAP1 antibody. Twenty microliter of Protein A/G PLUS agarose beads (Santa Cruz Biotechnologies) were added for 2 h at 4° C. After a initial wash (500 mM NaCl, 50 mM Tris pH 7.5, 0.1% Nonidet P40, 0.05% Na-deoxycholate) and a final wash (10 mM Tris pH 7.5, 0.1% Nonidet P40, 0.05% Na-deoxycholate), proteins were eluted from the beads with 1× loading buffer and 2% β-mercaptoethanol, boiled for 10 min and analyzed by Western blot. To avoid detecting the IgG heavy chain, TidyBlot Western Blot reagent:HRP (Bio-Rad) at 1:100 was used as secondary antibody to reveal the PKA subunits from the co-immunoprecipitation blot.
AKAP1 is known to localize PKA to the surface of mitochondria and to relay cAMP signaling for mitochondrial functions. Inspired by this information, an inquiry as to whether treatment with the reported compounds could alter the binding of AKAP1 to mitochondria was undertaken. Analysis began by treating brown adipocytes with Z160 and isolated mitochondria at different times. […]

[2] = immortalized brown adipocytes, 10 μM

| SMILES | potency on Ucp1 induction compared with AST070 (Ucp1; 10 μM) | expression of markers of brown adipocyte identity, mitochondrial function and fatty acid oxidation genes (Ucp1; [2]) | expression of lipolytic enzymes (Atgl, Hsl) and FGF21 at the mRNA level (Ucp1; immortalized brown adipocytes, 10 μM overnight) | signal for PKA subunit precipitation by AKAP1 [1] | Ucp1 expression induction (Ucp1; 1 μM compared with 10 μM) | duration of effect on Ucp1 expression (Ucp1; 10 μM) | earliest time at which effect on Ucp1 expression was observed (Ucp1; 10 μM) [h] | concentration of optimal Ucp1 expression induction (Ucp1; titration, overnight treatment) [µM] |
| --- | --- | --- | --- | --- | --- | --- | --- | --- |
| COc1ccc(NC(=O)CSc2nc3ccccc3c(=O)[nH]2)c(OC)c1 [Z160] | greater potency than AST070 | promoted expression | increased expression | slightly enhanced |  |  |  |  |
| O=C(CSc1nc2ccccc2c(=O)[nH]1)Nc1ccc2c(c1)OCCO2 [AST070, N-(2,3-dihydro-1,4-benzodioxin-6-yl)-2-[(4-oxo-3,4-dihydroquinazolin-2-yl)sulfanyl]acetamide] |  | promoted expression |  | slightly enhanced | lower induction | at least 24 h | 5 | 10 |
